Assay results as given in ChEMBL document CHEMBL3817748, “Identification of novel peptoid agonists of fibroblast growth factor receptor using microarray-based screening” (Medchemcomm, 2016).
Calls of active or inactive are those of the source. The calls are words filed in the database; no cut-off is given here. *1 amine or outer side, *2 acyl side, *3 side chain or, on linkers, in order; H or OH if unused. Where a SMILES comes first, the peptide text is derived from it. [ ]: non-standard residue; d: D form. ξ: configuration not given here. Gly(N-(CH2)3N-pyrrolidone) = O=C(O)CNCCCN1CCCC1=O; Gly(N-CH2CH2C6H4-4Cl) = O=C(O)CNCCc1ccc(Cl)cc1; X1 = O=C(CN(Cc1cccc(C(F)(F)F)c1)[*:1])[*:2]; X3 = CC(c1ccccc1)N(CC(=O)[*:2])[*:1]; Nrpe = C[C@@H](NCC(=O)O)c1ccccc1; X2 = O=C(CN(CC1CCCO1)[*:1])[*:2]; NFurfurylGly = O=C(O)CNCc1ccco1; Gly(N-cPent) = O=C(O)CNC1CCCC1; NAllylGly = C=CCNCC(=O)O; Nphe = O=C(O)CNCc1ccccc1; Nlys = NCCCCNCC(=O)O; ξC = NC(CS)C(=O)O

Assays:
[1] = species on record: Homo sapiens; assay: Binding affinity to Fc-tagged FGFR1alpha (unknown origin) at 50 uM after 1 hr by Texas-red labeled anti-Fc detection based microarray assay
[2] = biological target: Fibroblast growth factor receptor 1 (Mus musculus) (UniProt P16092); assay: Agonist activity at FGFR1 in mouse NIH-3T3 cells assessed as increase in ERK phosphorylation at 15 uM after 10 mins by Western blot analysis; format: cell-based; settings: NIH3T3
[3] = biological target: Fibroblast growth factor receptor 2 (Homo sapiens) (UniProt P21802); assay: Agonist activity at FGFR2 in human MDA231 cells assessed as increase in Akt phosphorylation at 15 uM after 10 mins by Western blot analysis; format: cell-based
[4] = biological target: Fibroblast growth factor receptor 1 (Homo sapiens) (UniProt P11362); assay: Agonist activity at FGFR1 in human MCF7 cells assessed as increase in Akt phosphorylation at 15 uM after 10 mins by Western blot analysis; format: cell-based
[5] = species on record: Homo sapiens; assay: Binding affinity to Fc-tagged FGFR1alpha (unknown origin) uM after 1 hr by FITC-labeled anti-Fc detection based microarray assay
[6] = tested on: MCF7; assay: Agonist activity at FGFR1alpha in human MCF7 cells assessed as increase in ERK phosphorylation at 15 uM after 10 mins by Western blot analysis; format: cell-based
[7] = species on record: Homo sapiens; assay: Binding affinity to Fc-tagged FGFR1alpha (unknown origin) at 150 uM by Texas-red labeled anti-Fc detection based fluorescence microscopic analysis
[8] = biological target: Fibroblast growth factor receptor 1 (Mus musculus) (UniProt P16092); assay: Agonist activity at FGFR1 in mouse NIH-3T3 cells assessed as increase in Akt phosphorylation at 15 uM after 10 mins by Western blot analysis; format: cell-based; settings: NIH3T3
[9] = biological target: Fibroblast growth factor receptor 2 (Homo sapiens) (UniProt P21802); assay: Agonist activity at FGFR2 in human MDA231 cells assessed as increase in ERK phosphorylation at 15 uM after 10 mins by Western blot analysis; format: cell-based
[10] = species on record: Homo sapiens; assay: Binding affinity to Fc-tagged FGFR1alpha (unknown origin) at 25 uM after 1 hr by Texas-red labeled anti-Fc detection based microarray assay
[11] = species on record: Homo sapiens; assay: Binding affinity to Fc-tagged FGFR1alpha (unknown origin) at 100 uM after 1 hr by Texas-red labeled anti-Fc detection based microarray assay

Sequence of Fibroblast growth factor receptor 2 (Homo sapiens) (P21802 22-821 limits assumed): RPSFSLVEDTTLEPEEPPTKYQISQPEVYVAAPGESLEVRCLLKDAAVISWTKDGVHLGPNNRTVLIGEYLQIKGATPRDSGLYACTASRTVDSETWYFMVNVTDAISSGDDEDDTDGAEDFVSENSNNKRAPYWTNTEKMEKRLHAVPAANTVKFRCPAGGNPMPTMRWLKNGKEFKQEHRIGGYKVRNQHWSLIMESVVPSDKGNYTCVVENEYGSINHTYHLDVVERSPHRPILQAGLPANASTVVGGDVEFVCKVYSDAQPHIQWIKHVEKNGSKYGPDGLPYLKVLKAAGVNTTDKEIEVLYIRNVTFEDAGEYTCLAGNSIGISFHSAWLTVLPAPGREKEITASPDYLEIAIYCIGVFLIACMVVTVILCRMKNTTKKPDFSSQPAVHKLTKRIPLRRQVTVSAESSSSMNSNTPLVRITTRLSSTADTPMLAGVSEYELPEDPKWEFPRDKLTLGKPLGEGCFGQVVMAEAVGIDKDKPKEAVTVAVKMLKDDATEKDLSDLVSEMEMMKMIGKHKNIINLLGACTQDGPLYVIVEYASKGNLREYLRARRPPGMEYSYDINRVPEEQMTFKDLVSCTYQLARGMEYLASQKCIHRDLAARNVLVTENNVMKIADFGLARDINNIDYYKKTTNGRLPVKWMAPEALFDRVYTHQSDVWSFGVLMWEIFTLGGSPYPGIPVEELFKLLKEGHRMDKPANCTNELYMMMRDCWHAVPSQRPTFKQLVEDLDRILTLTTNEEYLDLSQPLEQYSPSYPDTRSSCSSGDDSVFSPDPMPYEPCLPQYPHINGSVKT
Sequence of Fibroblast growth factor receptor 1 (Mus musculus) (P16092 whole entry): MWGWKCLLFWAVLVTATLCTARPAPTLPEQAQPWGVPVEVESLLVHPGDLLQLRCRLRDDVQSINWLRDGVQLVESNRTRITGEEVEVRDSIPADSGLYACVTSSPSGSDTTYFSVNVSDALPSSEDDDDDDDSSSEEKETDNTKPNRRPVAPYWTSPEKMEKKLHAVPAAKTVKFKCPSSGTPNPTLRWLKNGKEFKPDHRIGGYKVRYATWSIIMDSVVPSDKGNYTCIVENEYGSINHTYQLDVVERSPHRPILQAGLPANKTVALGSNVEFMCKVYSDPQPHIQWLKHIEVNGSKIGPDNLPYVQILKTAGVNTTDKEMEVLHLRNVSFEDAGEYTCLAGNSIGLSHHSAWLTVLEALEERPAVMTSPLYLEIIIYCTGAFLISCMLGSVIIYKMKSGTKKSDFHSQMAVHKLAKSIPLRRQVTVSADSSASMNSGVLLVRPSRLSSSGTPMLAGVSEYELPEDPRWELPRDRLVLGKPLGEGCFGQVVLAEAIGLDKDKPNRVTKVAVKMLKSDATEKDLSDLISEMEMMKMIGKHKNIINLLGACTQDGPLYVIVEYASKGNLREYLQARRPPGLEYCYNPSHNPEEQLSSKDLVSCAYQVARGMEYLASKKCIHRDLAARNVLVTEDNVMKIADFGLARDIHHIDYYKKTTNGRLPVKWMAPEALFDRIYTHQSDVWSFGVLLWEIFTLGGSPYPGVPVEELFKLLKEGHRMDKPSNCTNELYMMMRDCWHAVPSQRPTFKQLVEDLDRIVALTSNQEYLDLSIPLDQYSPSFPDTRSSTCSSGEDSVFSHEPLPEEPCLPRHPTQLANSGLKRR
Sequence of Fibroblast growth factor receptor 1 (Homo sapiens) (P11362 22-822 limits assumed): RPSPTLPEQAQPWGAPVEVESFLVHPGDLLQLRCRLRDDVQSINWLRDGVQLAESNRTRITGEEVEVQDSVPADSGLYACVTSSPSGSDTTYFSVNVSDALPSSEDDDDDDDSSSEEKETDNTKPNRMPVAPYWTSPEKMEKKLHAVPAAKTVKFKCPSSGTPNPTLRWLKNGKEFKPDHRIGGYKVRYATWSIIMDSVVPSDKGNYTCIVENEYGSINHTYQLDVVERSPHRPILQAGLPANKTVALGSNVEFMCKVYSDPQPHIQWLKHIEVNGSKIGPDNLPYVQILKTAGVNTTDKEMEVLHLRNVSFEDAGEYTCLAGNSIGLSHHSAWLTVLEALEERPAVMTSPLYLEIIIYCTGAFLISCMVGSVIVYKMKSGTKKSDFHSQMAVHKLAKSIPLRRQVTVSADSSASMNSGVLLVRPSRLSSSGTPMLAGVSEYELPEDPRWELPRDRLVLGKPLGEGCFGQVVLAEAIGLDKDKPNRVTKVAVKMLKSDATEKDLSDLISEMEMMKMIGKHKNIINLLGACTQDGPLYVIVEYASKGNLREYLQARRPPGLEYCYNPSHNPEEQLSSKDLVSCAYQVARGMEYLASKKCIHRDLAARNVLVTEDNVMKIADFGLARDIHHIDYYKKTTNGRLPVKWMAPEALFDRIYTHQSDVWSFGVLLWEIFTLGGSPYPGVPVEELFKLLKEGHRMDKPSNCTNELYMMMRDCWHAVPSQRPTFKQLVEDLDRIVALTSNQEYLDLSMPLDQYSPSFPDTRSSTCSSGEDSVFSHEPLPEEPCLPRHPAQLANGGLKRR

Structure (SMILES)	Activity [1]	Activity [2]	Activity [3]	Activity [4]	Activity [5]	Activity [7]	Activity [8]	Activity [9]	Activity [10]	Activity [11]	Activity [6]
CC(NCC(=O)N(CC(=O)N(CC(=O)N(CC(=O)N(CC(=O)N(CC(=O)N(CCCCN)CC(=O)N(CCCCN)CC(=O)NC(CS)C(N)=O)Cc1cccc(C(F)(F)F)c1)Cc1cccc(C(F)(F)F)c1)CC1CCCO1)Cc1ccccc1)C1CCCC1)c1ccccc1 (stereo unspecified)	inactive	–	–	–	–	–	–	–	–	inactive	–
C=CCN(CC(=O)N(CC(=O)N(CCCCN)CC(=O)N(CCCCN)CC(=O)N[C@@H](CS)C(N)=O)Cc1ccco1)C(=O)CN(Cc1ccco1)C(=O)CN(CC1CCCO1)C(=O)CN(C(=O)CNCCc1ccc(Cl)cc1)C1CCCC1 (stereo partly specified) (H-[Gly(N-CH2CH2C6H4-4Cl)][Gly(N-cPent)][X2][NFurfurylGly][NAllylGly][NFurfurylGly][Nlys][Nlys]C-NH2)	Active	inactive	inactive	inactive	Active	–	inactive	inactive	Active	Active	inactive
C=CCN(CC(=O)N(CCCCN)CC(=O)N(CCCCN)CC(=O)N[C@@H](CS)C(N)=O)C(=O)CN(C(=O)CN(Cc1ccccc1)C(=O)CN(C(=O)CN(Cc1ccccc1)C(=O)CNC1CCCC1)C1CCCC1)[C@H](C)c1ccccc1 (H-[Gly(N-cPent)][Nphe][Gly(N-cPent)][Nphe][Nrpe][NAllylGly][Nlys][Nlys]C-NH2)	Active	Active	Active	Active	Active	–	Active	Active	Active	Active	Active
C=CCN(CC(=O)N(CC(=O)N(CC(=O)N(CC(=O)N(CCCCN)CC(=O)N(CCCCN)CC(=O)NC(CS)C(N)=O)C1CCCC1)Cc1ccco1)Cc1cccc(C(F)(F)F)c1)C(=O)CN(C(=O)CNCCc1ccc(Cl)cc1)C(C)c1ccccc1 (stereo unspecified) (H-[Gly(N-CH2CH2C6H4-4Cl)][X3][NAllylGly][X1][NFurfurylGly][Gly(N-cPent)][Nlys][Nlys][ξC]-NH2)	inactive	–	–	–	–	–	–	–	–	inactive	–

Second part, led by results:

Activity [1]	Activity [2]	Activity [3]	Activity [4]	Activity [5]	Activity [7]	Activity [8]	Activity [9]	Activity [10]	Activity [11]	Structure (SMILES)	Activity [6]
Active	Active	Active	Active	Active	Active	Active	Active	Active	Active	C=CCN(CC(=O)N(CC(=O)N(CCCN1CCCC1=O)CC(=O)N(CCCCN)CC(=O)N(CCCCN)CC(=O)N[C@@H](CS)C(N)=O)CC1CCCO1)C(=O)CN(C(=O)CN(Cc1cccc(C(F)(F)F)c1)C(=O)CNCCCN1CCCC1=O)[C@H](C)c1ccccc1 (stereo partly specified) (H-[Gly(N-(CH2)3N-pyrrolidone)][X1][Nrpe][NAllylGly][X2][Gly(N-(CH2)3N-pyrrolidone)][Nlys][Nlys]C-NH2)	Active
Active	Active	Active	Active	Active	Active	Active	Active	Active	Active	C=CCN(CC(=O)N(CC(=O)N(CCCCN)CC(=O)N(CCCCN)CC(=O)N[C@@H](CS)C(N)=O)[C@H](C)c1ccccc1)C(=O)CN(Cc1ccco1)C(=O)CN(C(=O)CN(Cc1cccc(C(F)(F)F)c1)C(=O)CNCc1ccccc1)C1CCCC1 (H-[Nphe][X1][Gly(N-cPent)][NFurfurylGly][NAllylGly][Nrpe][Nlys][Nlys]C-NH2)	Active
